Laboratory results as given in patent US20160052926A1, “NOVEL PYRIMIDINE AND PYRIDINE COMPOUNDS AND USAGE THEREOF” (HUTCHISON MEDIPHARMA LIMITED, priority 2013, published 2016).

Legend:
Recombinant human FGFR1 = Recombinant human FGFR1 (Homo sapiens, UniProt P11362); experiment: Transcreener Kinase Assay of FGFR1; type: biochemical; conditions: read-out: FGFR1 (FP) IC50
Recombinant human FGFR2 = Recombinant human FGFR2 (Homo sapiens, UniProt P21802); experiment: Transcreener Kinase Assay of FGFR2; type: biochemical; conditions: read-out: FGFR2 (FP) IC50
Sequence of Recombinant human FGFR2 (P21802 22-821): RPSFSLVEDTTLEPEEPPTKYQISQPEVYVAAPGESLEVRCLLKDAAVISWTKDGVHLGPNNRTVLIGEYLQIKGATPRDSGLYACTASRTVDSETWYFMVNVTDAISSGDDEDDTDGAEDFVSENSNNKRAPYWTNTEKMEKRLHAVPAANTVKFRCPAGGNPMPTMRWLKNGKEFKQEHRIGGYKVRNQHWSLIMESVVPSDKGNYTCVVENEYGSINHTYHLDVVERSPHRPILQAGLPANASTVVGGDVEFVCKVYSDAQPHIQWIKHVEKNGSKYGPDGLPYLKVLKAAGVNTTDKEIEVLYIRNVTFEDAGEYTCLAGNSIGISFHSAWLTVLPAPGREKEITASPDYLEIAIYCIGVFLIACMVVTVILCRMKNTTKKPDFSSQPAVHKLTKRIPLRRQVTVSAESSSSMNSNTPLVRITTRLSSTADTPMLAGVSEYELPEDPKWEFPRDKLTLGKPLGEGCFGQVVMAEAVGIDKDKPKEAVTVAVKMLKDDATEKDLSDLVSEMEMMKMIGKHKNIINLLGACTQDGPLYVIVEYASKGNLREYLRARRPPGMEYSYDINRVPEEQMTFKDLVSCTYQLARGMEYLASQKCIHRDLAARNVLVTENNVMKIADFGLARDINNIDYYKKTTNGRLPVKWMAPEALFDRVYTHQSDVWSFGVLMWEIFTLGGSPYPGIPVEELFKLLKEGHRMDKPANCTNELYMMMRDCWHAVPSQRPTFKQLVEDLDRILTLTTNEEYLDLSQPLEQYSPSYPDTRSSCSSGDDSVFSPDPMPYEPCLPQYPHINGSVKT

FGFR3 kinase = FGFR3 kinase (Homo sapiens, UniProt P22607); experiment: Z-Lyte Kinase Assay of FGFR3; type: biochemical
Sequence of FGFR3 kinase (P22607 23-806): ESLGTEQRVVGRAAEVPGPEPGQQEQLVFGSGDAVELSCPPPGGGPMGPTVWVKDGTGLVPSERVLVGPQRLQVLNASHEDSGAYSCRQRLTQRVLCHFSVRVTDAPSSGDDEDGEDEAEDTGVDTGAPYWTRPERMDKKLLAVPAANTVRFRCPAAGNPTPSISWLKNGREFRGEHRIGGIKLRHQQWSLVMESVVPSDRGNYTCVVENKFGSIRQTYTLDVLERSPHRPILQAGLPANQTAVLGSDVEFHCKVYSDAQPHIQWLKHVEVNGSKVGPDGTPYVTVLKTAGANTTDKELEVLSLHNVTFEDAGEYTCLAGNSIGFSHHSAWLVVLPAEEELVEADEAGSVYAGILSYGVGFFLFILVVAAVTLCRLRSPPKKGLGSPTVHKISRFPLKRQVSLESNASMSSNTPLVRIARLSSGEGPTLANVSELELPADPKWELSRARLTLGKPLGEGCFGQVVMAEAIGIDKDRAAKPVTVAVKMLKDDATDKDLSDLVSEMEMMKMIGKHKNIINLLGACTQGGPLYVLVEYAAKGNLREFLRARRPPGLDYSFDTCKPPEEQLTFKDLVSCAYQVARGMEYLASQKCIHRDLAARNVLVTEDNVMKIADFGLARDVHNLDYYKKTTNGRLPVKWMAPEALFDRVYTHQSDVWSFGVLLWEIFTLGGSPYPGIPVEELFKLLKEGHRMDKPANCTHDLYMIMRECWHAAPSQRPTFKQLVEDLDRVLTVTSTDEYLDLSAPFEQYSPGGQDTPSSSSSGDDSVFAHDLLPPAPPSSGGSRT
How it was run: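 Kinase at 0.7 μg/ml with 4 μM Z-LYTE Tyr 4 peptide and ATP diluted to 300 uM (working solution, 1.33× buffer); compounds 1–0.00046 μM, 2% DMSO final. Kinase reaction and development each 1 h at RT (25-30[…]); coumarin (445 nm) and fluorescein (520 nm) emission read, inhibition from % phosphorylation.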

KG-1 = experiment: Cellular Proliferation Assay (Cell Counting Kit-8), KG-1; type: cell-based; conditions: Homo sapiens, KG1 cells, 72 hours
How it was run: (§1)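 Seeding was 30,000 (KG-1), 5,000 (SNU-16) or 1,000 (RT-112) cells per well, with compound added 24 h later. Dilutions were prepared as an 8-point series of 10 to 0.004 μM in 5% DMSO, before addition to wells.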

SNU-16 = experiment: Cellular Proliferation Assay (Cell Counting Kit-8), SNU-16; type: cell-based; conditions: Homo sapiens, SNU-16 cells, 72 hours
How it was run: as §1

RT-112 = experiment: Cellular Proliferation Assay (Cell Counting Kit-8), RT-112; type: cell-based; conditions: Homo sapiens, RT-112 cells, 72 hours
How it was run: as §1

Sequence of Recombinant human FGFR1 (P11362 22-822): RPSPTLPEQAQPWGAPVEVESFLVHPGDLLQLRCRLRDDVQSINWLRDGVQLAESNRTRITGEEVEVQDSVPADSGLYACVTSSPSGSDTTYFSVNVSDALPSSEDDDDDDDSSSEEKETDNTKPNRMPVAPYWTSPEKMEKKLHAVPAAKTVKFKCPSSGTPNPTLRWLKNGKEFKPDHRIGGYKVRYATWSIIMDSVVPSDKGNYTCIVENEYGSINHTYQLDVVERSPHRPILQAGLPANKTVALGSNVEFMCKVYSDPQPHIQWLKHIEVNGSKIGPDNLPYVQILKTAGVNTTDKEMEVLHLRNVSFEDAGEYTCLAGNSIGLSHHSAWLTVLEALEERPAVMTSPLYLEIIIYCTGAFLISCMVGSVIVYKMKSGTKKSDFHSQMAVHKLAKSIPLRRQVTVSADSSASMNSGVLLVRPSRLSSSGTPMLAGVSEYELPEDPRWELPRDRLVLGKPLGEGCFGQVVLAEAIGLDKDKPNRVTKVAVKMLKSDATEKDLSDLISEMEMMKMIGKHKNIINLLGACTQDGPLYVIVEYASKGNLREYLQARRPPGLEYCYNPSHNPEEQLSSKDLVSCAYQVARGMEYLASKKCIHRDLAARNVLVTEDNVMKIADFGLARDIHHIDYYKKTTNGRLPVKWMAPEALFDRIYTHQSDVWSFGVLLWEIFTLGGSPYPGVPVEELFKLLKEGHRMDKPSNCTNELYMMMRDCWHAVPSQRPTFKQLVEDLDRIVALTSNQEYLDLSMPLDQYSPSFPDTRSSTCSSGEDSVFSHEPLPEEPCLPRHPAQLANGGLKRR

IC50 (Recombinant human FGFR1) [nM] | IC50 (Recombinant human FGFR2) [nM] | IC50 (FGFR3 kinase) [nM] | IC50 (SNU-16) [nM] | SMILES | IC50 (KG-1) [nM] | IC50 (RT-112) [nM]
107 | 33 | 61 | 127 | CCn1cc(Nc2ncc(CCc3cc(C(=O)NC)cc(OC)c3F)cn2)c(C)n1 [Compound 111] | 162 | 570
9 | 7 | 8 | 17 | CNC(=O)c1cc(CCc2cnc(Nc3cnn(C(C)C)c3)nc2)c(F)c(OC)c1 [Compound 112] | 18 | 36
12 | 5 | 14 | 88 | CNC(=O)c1cc(CCc2cnc(Nc3cnn(CCO)c3)nc2)c(F)c(OC)c1 [Compound 114] | 71 | 591
14 | 6 | 11 | 19 | CCn1cc(Nc2ncc(CCc3cc(C(=O)NC)cc(OC)c3Cl)cn2)cn1 [Compound 115] | 12 | 53
27 | 10 | 28 | 45 | CNC(=O)c1cc(CCc2cnc(Nc3cnn(C(F)F)c3)nc2)c(F)c(OC)c1 [Compound 116] | 20 | 19
28 | 5 | 13 | 26 | CNC(=O)c1cc(CCc2cnc(Nc3cnn(C4COC4)c3)nc2)c(F)c(OC)c1 [Compound 117] | 31 | 188
23 | 12 | 34 | 29 | CNC(=O)c1cc(CCc2cnc(Nc3cnn(CC(C)C)c3)nc2)c(F)c(OC)c1 [Compound 118] | 26 | 220
11 | 6 | 19 | 27 | CNC(=O)c1cc(CCc2cnc(Nc3cnn(C4CC4)c3)nc2)c(Cl)c(OC)c1 [Compound 119] | 22 | 124
15 | 7 | 17 | 31 | CNC(=O)c1cc(CCc2cnc(Nc3cnn(CCOC)c3)nc2)c(F)c(OC)c1 [Compound 120] | 32 | 165
9 | 6 | 15 | 18 | CNC(=O)c1cc(CCc2cnc(Nc3cnn(C(C)C)c3)nc2)c(Cl)c(OC)c1 [Compound 121] | 7 | 65
14 | 6 | 9 | 13 | CNC(=O)c1cc(CCc2cnc(Nc3cnn(C4CCCC4)c3)nc2)c(F)c(OC)c1 [Compound 122] | 20 | 67
9 | 5 | 13 | 18 | CNC(=O)c1cc(CCc2cnc(Nc3cnn([C@@H]4CCOC4)c3)nc2)c(F)c(OC)c1 [Compound 123] | 26 | 135
28 | 19 | 20 | 29 | CNC(=O)c1cc(CCc2cnc(Nc3cnn(CCN(C)C)c3)nc2)c(F)c(OC)c1 [Compound 125] | 30 | 750
15 | 8 | 17 | 18 | CNC(=O)c1cc(CCc2cnc(Nc3cnn(CCCOC)c3)nc2)c(F)c(OC)c1 [Compound 126] | 45 | 112
9 | 5 | 9 | 20 | CNC(=O)c1cc(CCc2cnc(Nc3cnn(CCOC)c3)nc2)c(Cl)c(OC)c1 [Compound 127] | 22 | 66
20 | 10 | 14 | 15 | CNC(=O)c1cc(CCc2cnc(Nc3cnn(-c4cccnc4)c3)nc2)c(F)c(OC)c1 [Compound 128] | 47 | 112
8 | 5 | 10 | 32 | CNC(=O)c1cc(CCc2cnc(Nc3ccc4c(C)n(C)nc4c3)nc2)c(F)c(OC)c1 [Compound 130] | 28 | 48
19 | 8 | 11 | 13 | CNC(=O)c1cc(CCc2cnc(Nc3cnn(CC4(C)COC4)c3)nc2)c(F)c(OC)c1 [Compound 131] | 37 | 131

IC50 (Recombinant human FGFR1) [nM] | IC50 (Recombinant human FGFR2) [nM] | IC50 (FGFR3 kinase) [nM] | IC50 (SNU-16) [nM] | SMILES | IC50 (KG-1) [nM] | IC50 (RT-112) [nM]
12 | 6 | 6 | 10 | CNC(=O)c1cc(CCc2cnc(Nc3cnn(C4CCOCC4)c3)nc2)c(F)c(OC)c1 [Compound 132] | 20 | 59
20 | 8 | 16 | 51 | CNC(=O)c1cc(CCc2cnc(Nc3cnn(CCCN(C)C)c3)nc2)c(F)c(OC)c1 [Compound 133] | 345 | 713
71 | 8 | 24 | 34 | CNC(=O)c1cc(CCc2cnc(Nc3cnn(-c4ccc(C)nc4)c3)nc2)c(F)c(OC)c1 [Compound 134] | 33 | 84
22 | 19 | 22 | 46 | CNC(=O)c1cc(CCc2cnc(Nc3cnn(CCN4CCCC4)c3)nc2)c(F)c(OC)c1 [Compound 135] | 368 | 230
23 | 11 | 18 | 25 | CCN(CC)CCn1cc(Nc2ncc(CCc3cc(C(=O)NC)cc(OC)c3F)cn2)cn1 [Compound 136] | 92 | 37
12 | 6 | 7 | 29 | CNC(=O)c1cc(CCc2cnc(Nc3cnn(CC4CCN(C)CC4)c3)nc2)c(F)c(OC)c1 [Compound 137] | 319 | 86
9 | 7 | 8 | 32 | CNC(=O)c1cc(CCc2cnc(Nc3cnn(CCCN4CCCC4)c3)nc2)c(F)c(OC)c1 [Compound 138] | 617 | 202
12 | 6 | 8 | 22 | CNC(=O)c1cc(CCc2cnc(Nc3cnn(CCN4CCOCC4)c3)nc2)c(F)c(OC)c1 [Compound 139] | 64 | 146
20 | 11 | 28 | 28 | CNC(=O)c1cc(CCc2cnc(Nc3cnn(Cc4ccccn4)c3)nc2)c(F)c(OC)c1 [Compound 142] | 60 | 208
41 | 7 | 203 | 100 | CNC(=O)c1cc(CCc2cnc(Nc3cnn(CC(=O)N4CCCC4)c3)nc2)c(F)c(OC)c1 [Compound 143] | 803 | 991
37 | 13 | 32 | 52 | CNC(=O)c1cc(CCc2cnc(Nc3ccc(N4CCCCC4=O)cc3)nc2)c(F)c(OC)c1 [Compound 145, 4-fluoro-3-methoxy-N-methyl-5-(2-(2-(4-(2-oxopiperidin-1-yl)phenylamino)pyrimidin-5-yl)ethyl)benzamide] | 154 | 260
12 | 10 | 14 | 19 | CNC(=O)c1cc(CCc2cnc(Nc3cnn(C)c3)nc2)c(Cl)c(OC)c1 [Compound 146] | 9 | 142
19 | 10 | 22 | 46 | CCNC(=O)c1cc(CCc2cnc(Nc3cnn(C)c3)nc2)c(Cl)c(OC)c1 [Compound 147] | 48 | 334
9 | 5 | 14 | 59 | CNC(=O)c1cc(CCc2cnc(Nc3cnn(CCO)c3)nc2)c(Cl)c(OC)c1 [Compound 148] | 24 | 495
15 | 8 | 33 | 17 | CNC(=O)c1cc(CCc2cnc(Nc3cnn(C(F)F)c3)nc2)c(Cl)c(OC)c1 [Compound 149] | 67 | 21
15 | 6 | 6 | 33 | CNC(=O)c1cc(CCc2cnc(Nc3cnn(C[C@@H](C)O)c3)nc2)c(Cl)c(OC)c1 [Compound 150] | 31 | 62
15 | 16 | 152 | 149 | CNC(=O)c1cc(CCc2cnc(Nc3cnn(-c4ccccn4)c3)nc2)c(Cl)c(OC)c1 [Compound 151] | 71 | 626
19 | 12 | 38 | 29 | CNC(=O)c1cc(CCc2cnc(Nc3cnn(-c4ccc(C)nc4)c3)nc2)c(Cl)c(OC)c1 [Compound 152] | 56 | 88
